Measured values taken from ChEMBL document CHEMBL1142956, “Small molecule inhibitors of histone arginine methyltransferases: homology modeling, molecular docking, binding mode analysis, and biological evaluations” (J Med Chem, 2007).

Legend:
[1] = molecular target: Protein arginine N-methyltransferase 1 (Homo sapiens, UniProt Q99873); experiment: Inhibition of human recombinant GST-PRMT1 expressed in BL21 cells
[2] = molecular target: RmtA (Emericella nidulans, UniProt Q5VLE3); experiment: Inhibition of Aspergillus nidulans recombinant GST-RmtA expressed in BL21 cells

Compound	IC50 [1]	IC50 [2]	IC50 ([2]; bl21)
O=C1NC(=O)C(=Nn2c(=O)[nH]c(=O)[nH]c2=O)C(=O)N1	> 164 µM	> 164 µM	–
O=C1C=CC(=C(c2ccc(O)cc2)c2ccccc2C(=O)O)C=C1	885 µM	296 µM	–
O=S(=O)(O)c1cc(O)c2ccc(NC(=S)Nc3ccccc3)cc2c1	–	1360 µM	–
Nc1cc(S(=O)(=O)O)cc2cc(S(=O)(=O)O)cc(O)c12	–	220 µM	–
O=c1cc2oc3cc(O)c(O)cc3c(-c3ccccc3)c-2cc1O	–	160 µM	–
O=C(O)c1ccccc1-c1c2cc(Br)c(=O)c(Br)c-2oc2c(Br)c(O)c(Br)cc12	1.4 µM	0.18 µM	–
CC1=C(CN(CC(=O)O)CC(=O)O)C(=O)C(C(C)C)=C/C1=C(\c1ccccc1S(=O)(=O)O)c1cc(C(C)C)c(O)c(CN(CC(=O)O)CC(=O)O)c1C	> 34 µM	> 34 µM	–
O=C(Nc1ccc2c(O)cc(S(=O)(=O)O)cc2c1)Nc1ccc2c(O)cc(S(=O)(=O)O)cc2c1	–	88 µM	–
O=[N+]([O-])c1ccc2c(/N=N/c3cccc4ccccc34)c(O)cc(S(=O)(=O)O)c2c1	–	103 µM	–
CC1=CC(=O)C(C(C)C)=C/C1=C(/c1cc(C(C)C)c(O)cc1C)c1ccccc1C(=O)O	> 217 µM	> 217 µM	–
O=C1OC2(c3ccc(O)cc3Oc3cc(O)ccc32)c2ccccc21 [FLUORESCEIN]	–	123 µM	–
Nc1c(Br)cc(C(=O)O)c(-c2c3cc(Br)c(=O)c(Br)c-3oc3c(Br)c(O)c(Br)cc23)c1Br	4.8 µM	22.3 µM	–
O=C(Nc1ccccc1)Nc1ccc2c(O)cc(S(=O)(=O)O)cc2c1	–	1080 µM	–
O=C(O)c1ccc(Nc2nc(Cl)nc(Cl)n2)cc1-c1c2ccc(=O)cc-2oc2cc(O)ccc12	–	73 µM	–
Nc1ccc(C(=O)O)c(-c2c3ccc(=O)cc-3oc3cc(O)ccc23)c1	–	710 µM	–
O=C(O)c1ccc(Nc2nc(Cl)nc(Cl)n2)cc1	–	406 µM	–
CN(C)c1ccc(/N=N/c2ccccc2C(=O)O)cc1	–	2100 µM	–
Nc1ccc2c(O)cc(S(=O)(=O)O)cc2c1	–	590 µM	–
COc1cc(/C=C/C(=O)CC(=O)/C=C/c2ccc(O)c(OC)c2)ccc1O [CURCUMIN]	–	1100 µM	–
O=C1C=CC(=C(c2ccc(O)cc2)c2ccccc2S(=O)(=O)O)C=C1	–	> 263 µM	–
CN(C)c1ccc(/N=N/c2ccc(S(=O)(=O)O)cc2)cc1	–	490 µM	–
O=C1NS(=O)(=O)c2ccccc21 [SACCHARIN]	> 510 µM	> 510 µM	–
Cc1ccc(C(=O)Nc2ccc(S(=O)(=O)O)c3cc(S(=O)(=O)O)cc(S(=O)(=O)O)c23)cc1NC(=O)c1cccc(NC(=O)Nc2cccc(C(=O)Nc3cc(C(=O)Nc4ccc(S(=O)(=O)O)c5cc(S(=O)(=O)O)cc(S(=O)(=O)O)c45)ccc3C)c2)c1 [SURAMIN]	18.1 µM	5.9 µM	–
O=C1c2ccccc2C(=O)c2c1ccc(O)c2O [ATHRAQUINONES A]	–	1220 µM	–
Cc1cc(C(=C2C=CC(=N)C=C2)c2ccc(N)cc2)ccc1N [FUCHSIN, BASIC]	–	–	515 µM
